From US6323205A (priority 2000, dated 2001)

Assays:
[1] = Phase II clinical trial, tumor responses; assay type: in vivo, human patients; details: 150 mg/m^2 biweekly
Description: To date, the first six patients have received at least one cycle of treatments. […] Specifically, three patients enrolled in the study had measurable disease.

LX-1 lung tumor = assay: Antitumor activity against LX-1 lung tumor in nude mice (Example 10, combinations); assay type: in vivo, human tumor xenograft in nude mice; details: for Avg Tumor Diameter: 4 treatments, mg/kg: EDX 40, PDX 60, TXL 25, TXT 20, PDX+TXL 45+18, PDX+TXT 45+15, 'then' = taxane 24 h later; for Change in Tumor Volume: from starting point of 83 mg, 3 to 4 days after treatment end
[2] = tested on: human MX-1 mammary carcinoma; assay: Antitumor activity against xenografts of human MX-1 mammary carcinoma in nude mice; details: same doses, no measurable tumor at day 14, mice/mice tested
human LX-1 lung cancer = assay: Antitumor activity against xenografts of human LX-1 lung cancer in nude mice (Example 3); assay type: in vivo, human tumor xenograft in nude mice; details: Example 2 protocol, tumor free three weeks after therapy
PC-3 (human prostate) = assay: Antitumor activity in PC-3 tumor model in mice (Example 11); details: PC3, dose PDX 60, TXL 25, PDX + TXL 45 + 16
Description: (§1) The tumor volume at the time of initial treatment was 14-19 mm^3.

TSU-PR1 (human prostate) = assay: Antitumor activity in TSU-PR1 tumor model in mice (Example 11)
Description: as §1

LX-1 (human lung) = assay: Antitumor activity in LX-1 tumor model in mice (Example 11)
Description: as §1

[3] = dose PDX 60, TXL 25, PDX + TXL 45 + 16
[4] = dose PDX 60, TXL 25, PDX + TXL 45 + 16, initial volume 14-19 mm^3

## C#CCC(Cc1cnc2nc(N)nc(N)c2n1)c1ccc(C(=O)N[C@@H](CCC(=O)O)C(=O)O)cc1 (stereo partly drawn) [10-propargyl-10-deazaaminopterin]
[1]
  response of fourth patient (evaluable disease): objective improvement in disease parameters
[1]; of first six patients
  patients with major responses: four have demonstrated major responses
[1]; three patients with measurable disease
  reduction in tumor diameter (lung scans): at least 50%

## CCC(Cc1cnc2nc(N)nc(N)c2n1)c1ccc(C(=O)N[C@@H](CCC(=O)O)C(=O)O)cc1 (stereo partly drawn) [EDX, edatrexate]
LX-1 lung tumor
  Avg Tumor Diameter: 6.6 ± 2 mm
LX-1 lung tumor; same doses
  Change in Tumor Volume: +102 mg
LX-1 lung tumor; same doses, mice/mice treated
  Tumor Free Mice at 3-4 days: 0/10

## CN(Cc1cnc2nc(N)nc(N)c2n1)c1ccc(C(=O)N[C@@H](CCC(=O)O)C(=O)O)cc1 [MTX, methotrexate, reference compound]
[2]
  Complete Regressions: no regressions
Human LX-1 lung cancer
  Cures: 0/10

## CC(=O)O[C@H]1C(=O)[C@@]2(C)[C@H]([C@H](OC(=O)c3ccccc3)[C@]3(O)C[C@H](OC(=O)[C@H](O)[C@@H](NC(=O)c4ccccc4)c4ccccc4)C(C)=C1C3(C)C)[C@]1(OC(C)=O)CO[C@@H]1C[C@@H]2O [TXL, paclitaxel, reference compound]
PC-3 (human prostate)
  Avg Tumor Diameter: 4.3 ± 0.3 mm
  Tumor Free Mice: 0/6
PC-3 (human prostate); initial volume 14-19 mm^3
  Change in Tumor Volume: +26
LX-1 lung tumor
  Avg Tumor Diameter: 6.2 ± 2 mm
LX-1 lung tumor; same doses
  Change in Tumor Volume: +42 mg
LX-1 lung tumor; same doses, mice/mice treated
  Tumor Free Mice at 3-4 days: 0/10
TSU-PR1 (human prostate); [3]
  Avg Tumor Diameter: 3.2 ± 0.3 mm
  Tumor Free Mice: 0/6
TSU-PR1 (human prostate); [4]
  Change in Tumor Volume: 0
LX-1 (human lung); [3]
  Avg Tumor Diameter: 11.6 ± 1 mm
  Tumor Free Mice: 0/6
LX-1 (human lung); [4]
  Change in Tumor Volume: +803

## CC(=O)O[C@@]12CO[C@@H]1C[C@H](O)[C@@]1(C)C(=O)[C@H](O)C3=C(C)[C@@H](OC(=O)[C@H](O)[C@@H](NC(=O)OC(C)(C)C)c4ccccc4)C[C@@](O)([C@@H](OC(=O)c4ccccc4)[C@H]21)C3(C)C [TXT, docetaxel]
LX-1 lung tumor
  Avg Tumor Diameter: 6.0 ± 2 mm
LX-1 lung tumor; same doses
  Change in Tumor Volume: +34 mg
LX-1 lung tumor; same doses, mice/mice treated
  Tumor Free Mice at 3-4 days: 1/10
  Tumor Free Mice at 28 days: 0/10
